Proton coupling stoichiometry and Kd data for 1 compound are collected here from PMC10829512, “Transport of metformin metabolites by guanidinium exporters of the small multidrug resistance family” (The Journal of General Physiology, 2024).

In one test the target is Gdx-Eco (Escherichia coli, UniProt P69937). Further details: method as in Kermani et al., 2018; Thomas et al., 2021. Conditions: ref Kermani et al., 2018, Thomas et al., 2021; cited from earlier work.
The next test addresses Gdx-Clo A70C/S104C. Nature of the test: Tryptophan fluorescence binding to crosslinked variant. The arrangement: species or system Clostridales oral taxon 876. Conditions: A70C/S104C under oxidizing conditions, read-out: Kd, fit to a single-site binding model. As to the method:
Fluorescence emission spectra (λex = 280 nm, […]) were collected for 1 µM purified protein in assay buffer containing 200 mM NaCl, 10 mM HEPES, 10 mM bicine, 10 mM NaPO4, and 5 mM DM, with pH adjusted from 6.5 to 9.0. Substrate was added from a stock solution prepared in assay buffer. For Gdm^+ titrations, the change in fluorescence, F, as a function of substrate fit to a single site binding isotherm, ∆F=(Fmax[S]/Kd+[S]). (3)
For all SSM electrophysiology experiments, the shapes of the substrate-induced currents are characteristic of transport, rather than electrogenic presteady binding events. However, we sought to confirm this interpretation for at least one transporter/substrate pair. Using the structure of Gdx-Clo ([Kermani et al., 2020]), we introduced a pair of cysteines, A70C and S104C, that are within the crosslinking distance (∼6 Å) on the open side of the transporter, but that increase in distance when the transporter changes conformation. We expected that the formation of a crosslink would lock the transporter in one open conformation, impairing transport, with little effect on substrate binding (Fig. 2 C). […] Substrate exchange is restored in reducing conditions. […]

Sequence of Gdx-Eco (P69937 whole entry): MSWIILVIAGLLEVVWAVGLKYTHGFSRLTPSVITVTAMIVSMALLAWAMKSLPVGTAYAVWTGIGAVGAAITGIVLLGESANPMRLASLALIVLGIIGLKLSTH

`N=C(N)N` [Gdm^+, guanidinium]: at Gdx-Eco, the Proton coupling stoichiometry is 2 H^+: 1 Gdm^+. Also, the dissociation constant Kd (in general, the concentration at which binding is half-saturated) on Gdx-Clo A70C/S104C came out at 560 µM.
